Test results taken from PubChem BioAssay AID330 (DTP/NCI, 2004).
Several values for one entry are separate records, joined by “and”; a condition that tells them apart may be missing. Identical values can stand only once. Inconclusive results and toxic doses are left out.

Tested on: P388 leukemia ip, CD2F1 mice, survival T/C
Experiment: NCI In Vivo Anticancer Drug Screen. Data for tumor model P388 Leukemia (intraperitoneal) in CD2F1 (CDF1) mice
Conditions: endpoint: median survival time, higher = longer survival
Summary of the method: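 Mice carrying the transplanted tumor received test compound or vehicle. Survival was recorded in each group, and the value is the treated-group measurement divided by that of the vehicle-treated control group.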

[1] = dose: 50.0 mg/kg/injection, schedule: Q04DX002 (ip), vehicle: saline with Tween-80
[2] = dose: 100.0 mg/kg/injection, schedule: Q04DX002 (ip), vehicle: saline with Tween-80
[3] = dose: 50.0 mg/kg/injection, schedule: Q01DX005 (ip), vehicle: saline with Tween-80
[4] = dose: 100.0 mg/kg/injection, schedule: Q01DX005 (ip), vehicle: saline with Tween-80
[5] = dose: 12.5 mg/kg/injection, schedule: Q01DX009 (ip), vehicle: saline
[6] = dose: 25.0 mg/kg/injection, schedule: Q01DX009 (ip), vehicle: saline
[7] = dose: 50.0 mg/kg/injection, schedule: Q01DX005 (ip), vehicle: Klucel (hydroxypropylcellulose) (HPC)
[8] = dose: 100.0 mg/kg/injection, schedule: Q01DX005 (ip), vehicle: Klucel (hydroxypropylcellulose) (HPC)
[9] = dose: 200.0 mg/kg/injection, schedule: Q01DX005 (ip), vehicle: Klucel (hydroxypropylcellulose) (HPC)
[10] = dose: 50.0 mg/kg/injection, schedule: Q01DX009 (ip), vehicle: Klucel (hydroxypropylcellulose) (HPC)
[11] = dose: 100.0 mg/kg/injection, schedule: Q01DX009 (ip), vehicle: Klucel (hydroxypropylcellulose) (HPC)
[12] = dose: 200.0 mg/kg/injection, schedule: Q01DX009 (ip), vehicle: Klucel (hydroxypropylcellulose) (HPC)
[13] = dose: 50.0 mg/kg/injection, schedule: Q01DX009 (ip), vehicle: saline with Tween-80
[14] = dose: 100.0 mg/kg/injection, schedule: Q01DX009 (ip), vehicle: saline with Tween-80
[15] = dose: 200.0 mg/kg/injection, schedule: Q01DX009 (ip), vehicle: saline with Tween-80
[16] = dose: 25.0 mg/kg/injection, schedule: Q01DX009 (ip), vehicle: saline with Tween-80

For `CC(C)(O)C1OCC(C2CCC3(C)C4=CCC5C(C)(C)C(O)CCC5(C)C4CCC23C)CC1O` (centres undefined), the T/C (dose: 2.5 mg/kg/injection, schedule: Q01DX009 (ip), vehicle: alcohol) was 98 % of control, the T/C (dose: 5.0 mg/kg/injection, schedule: Q01DX009 (ip), vehicle: alcohol) was 101 % of control and the T/C (dose: 10.0 mg/kg/injection, schedule: Q01DX009 (ip), vehicle: alcohol) was 100 % of control. For the same compound, the T/C (dose: 20.0 mg/kg/injection, schedule: Q01DX009 (ip), vehicle: alcohol) was 99 % of control and the T/C (dose: 40.0 mg/kg/injection, schedule: Q01DX009 (ip), vehicle: alcohol) was 110 % of control.

`COC(=O)OCC#Cc1ccccc1` was tested, and the T/C [1] was 100 % of control, the T/C [2] was 108 % of control and the T/C (dose: 200.0 mg/kg/injection, schedule: Q04DX002 (ip), vehicle: saline with Tween-80) was 112 % of control.

In the case of `O=C(C[n+]1ccsc1Br)c1ccccc1`, the T/C [3] is reported as 102 % of control and the T/C [4] is reported as 119 % of control.

With `Nc1ncnc2c1ncn2C(C=O)OC(C=O)CO` (centres undefined) the T/C (dose: 4.4 mg/kg/injection, schedule: Q04DX003 (ip), vehicle: saline) was 118 % of control, the T/C (dose: 6.6 mg/kg/injection, schedule: Q04DX003 (ip), vehicle: saline) was 118 % of control and the T/C (dose: 9.38 mg/kg/injection, schedule: Q04DX003 (ip), vehicle: saline) was 177 % of control. The T/C [5] was 150 % of control, the T/C [6] was 186 % of control and the T/C (dose: 37.5 mg/kg/injection, schedule: Q04DX003 (ip), vehicle: saline) was 118 % of control. The T/C (dose: 75.0 mg/kg/injection, schedule: Q04DX003 (ip), vehicle: saline) was 209 % of control.

With `CSCCC(NC(=O)C(Cl)Cl)C(=O)O` (centres undefined) the T/C [7] was 100 % of control, the T/C [8] was 96 % of control and the T/C [9] was 100 % of control.

With `Cc1nn(C(=O)c2ccncc2)c(C)c1N=Nc1ccc(Br)cc1` the T/C [10] was 109 % of control, the T/C [11] was 110 % of control and the T/C [12] was 105 % of control.

`CCOc1ccc2c(c1)[n+](=O)c1ccc(Cl)cc1n2[O-]` was tested, and the T/C [3] was 104 % of control and 111 % of control and 118 % of control, the T/C [4] was 104 % of control and 116 % of control and 118 % of control and the T/C (dose: 200.0 mg/kg/injection, schedule: Q01DX005 (ip), vehicle: saline with Tween-80) was 112 % of control.

In the case of `Cc1ccc(C2CCC(C#N)=CN2C)cc1` (centres undefined), the T/C (dose: 50.0 mg/kg/injection, schedule: Q01DX005 (ip), vehicle: Klucel + Tween-80) is reported as 94 % of control, the T/C (dose: 100.0 mg/kg/injection, schedule: Q01DX005 (ip), vehicle: Klucel + Tween-80) is reported as 98 % of control and the T/C (dose: 200.0 mg/kg/injection, schedule: Q01DX005 (ip), vehicle: Klucel + Tween-80) is reported as 100 % of control.

In the case of `CCOC(=O)c1ccc(NC(CCl)=NC(C)(C)C)cc1`, the T/C [13] is reported as 86 % of control, the T/C [14] is reported as 100 % of control and the T/C [15] is reported as 90 % of control.

With `O=S(=O)(CCl)OCCCCOS(=O)(=O)CCl` the T/C (dose: 25.0 mg/kg/injection, schedule: Q04DX003 (ip), vehicle: saline sonified) was 109 % of control, the T/C (dose: 50.0 mg/kg/injection, schedule: Q04DX003 (ip), vehicle: saline sonified) was 104 % of control and the T/C (dose: 66.0 mg/kg/injection, schedule: Q01DX009 (ip), vehicle: saline) was 120 % of control. The T/C (dose: 100.0 mg/kg/injection, schedule: Q04DX003 (ip), vehicle: saline sonified) was 118 % of control and the T/C (dose: 150.0 mg/kg/injection, schedule: Q01DX009 (ip), vehicle: saline) was 150 % of control.

In the case of `Cc1ccccc1NCN1C(=O)S/C(=C2\C(=O)N(C)c3ccc(Br)cc32)C1=O`, the T/C [7] is reported as 95 % of control, the T/C [8] is reported as 92 % of control and the T/C [9] is reported as 90 % of control.

In the case of `Cc1ccc2c(c1Oc1ccc(S(N)(=O)=O)cc1)C(=O)c1ccccc1C2=O`, the T/C (dose: 100.0 mg/kg/injection, schedule: Q04DX003 (ip), vehicle: saline with Tween-80) is reported as 100 % of control, the T/C (dose: 200.0 mg/kg/injection, schedule: Q04DX003 (ip), vehicle: saline with Tween-80) is reported as 100 % of control and the T/C (dose: 400.0 mg/kg/injection, schedule: Q04DX003 (ip), vehicle: saline with Tween-80) is reported as 95 % of control.

`COC(=O)C1=C(\N2CCOCC2)CCCCC/C=C\1C(=O)OC` was tested, and the T/C [16] was 99 % of control and 106 % of control, the T/C [13] was 100 % of control and 103 % of control and the T/C [14] was 103 % of control and 107 % of control. For the same compound, the T/C [15] was 88 % of control and 95 % of control.

In the case of `COc1cc2c(c(OC)c1OC)-c1ccc(SC)c(=O)cc1[C@@H](NC(=O)NCCCl)CC2`, the T/C (dose: 1.5 mg/kg/injection, schedule: Q01DX009 (ip), vehicle: water) is reported as 110 % of control, the T/C (dose: 6.0 mg/kg/injection, schedule: Q01DX009 (ip), vehicle: water) is reported as 150 % of control and the T/C (dose: 12.0 mg/kg/injection, schedule: Q01DX009 (ip), vehicle: water) is reported as 155 % of control. The T/C (dose: 13.5 mg/kg/injection, schedule: Q01DX009 (ip), vehicle: water) was 150 % of control and 163 % of control.

For `[O-][n+]1cc2ccccc2c2ccccc21`, the T/C (dose: 100.0 mg/kg/injection, schedule: Q04DX003 (ip), vehicle: saline) was 100 % of control, the T/C (dose: 200.0 mg/kg/injection, schedule: Q04DX003 (ip), vehicle: saline) was 100 % of control and the T/C (dose: 400.0 mg/kg/injection, schedule: Q04DX003 (ip), vehicle: saline) was 99 % of control.

For `ClCSCc1ccccc1`, the T/C (dose: 12.5 mg/kg/injection, schedule: Q01DX009 (ip), vehicle: other) was 110 % of control, the T/C (dose: 25.0 mg/kg/injection, schedule: Q01DX009 (ip), vehicle: other) was 110 % of control and the T/C (dose: 50.0 mg/kg/injection, schedule: Q01DX009 (ip), vehicle: other) was 110 % of control.

For `O=P(Oc1cccc2ccccc12)(N1CC1)N1CC1`, the T/C (dose: 6.25 mg/kg/injection, schedule: Q01DX009 (ip), vehicle: saline) was 90 % of control, the T/C [5] was 95 % of control and the T/C [6] was 100 % of control. The T/C [14] was 177 % of control and the T/C [15] was 95 % of control.

For `Cc1cc(=O)n2c3c(c4c(cc13)c(CN(C)C)cc(=O)n4C)OC2`, the T/C (dose: 12.5 mg/kg/injection, schedule: Q01DX009 (ip), vehicle: saline with Tween-80) was 111 % of control, the T/C [16] was 152 % of control and the T/C [13] was 102 % of control and 118 % of control.

`NC(=O)N/N=C1/C=CC2(CC=CCC2)CC1` (centres undefined) was tested, and the T/C (dose: 100.0 mg/kg/injection, schedule: Q01DX001 (ip), vehicle: Klucel (hydroxypropylcellulose) (HPC)) was 90 % of control, the T/C (dose: 200.0 mg/kg/injection, schedule: Q01DX001 (ip), vehicle: Klucel (hydroxypropylcellulose) (HPC)) was 104 % of control and the T/C (dose: 400.0 mg/kg/injection, schedule: Q01DX001 (ip), vehicle: Klucel (hydroxypropylcellulose) (HPC)) was 90 % of control.

`O=C(/C=C/c1c[nH]c2ccccc12)c1ccc([N+](=O)[O-])cc1` was tested, and the T/C (dose: 15.0 mg/kg/injection, schedule: Q01DX005 (ip), vehicle: saline with Tween-80) was 100 % of control, the T/C (dose: 30.0 mg/kg/injection, schedule: Q01DX005 (ip), vehicle: saline with Tween-80) was 86 % of control and the T/C (dose: 60.0 mg/kg/injection, schedule: Q01DX005 (ip), vehicle: saline with Tween-80) was 97 % of control.

In the case of `CC[N+](CC)=c1ccc2nc3c(cc(Nc4ccccc4)c4ccccc43)oc-2c1.[Cl][Zn][Cl]`, the T/C (dose: 60.0 mg/kg/injection, schedule: Q01DX005 (ip), vehicle: Klucel (hydroxypropylcellulose) (HPC)) is reported as 98 % of control and the T/C (dose: 120.0 mg/kg/injection, schedule: Q01DX005 (ip), vehicle: Klucel (hydroxypropylcellulose) (HPC)) is reported as 107 % of control.

In the case of `C[C@@H]1C(=O)O[C@H]2[C@H]1CC[C@@]1(C)C=C(Cl)C(=O)[C@@H](C)[C@H]21`, the T/C [1] is reported as 100 % of control and the T/C [2] is reported as 117 % of control.

For `NC(=O)/C=C/C(=O)NC(=O)Cc1ccccc1`, the T/C (dose: 1.5 mg/kg/injection, schedule: Q01DX009 (ip), vehicle: saline with Tween-80) was 109 % of control, the T/C (dose: 3.0 mg/kg/injection, schedule: Q01DX009 (ip), vehicle: saline with Tween-80) was 110 % of control and 119 % of control and the T/C (dose: 6.0 mg/kg/injection, schedule: Q01DX009 (ip), vehicle: saline with Tween-80) was 109 % of control and 116 % of control.

`Cc1ccc(S(=O)(=O)N2OC2c2ccccc2C)cc1` (centres undefined) was tested, and the T/C [10] was 107 % of control, the T/C [11] was 106 % of control and the T/C [12] was 103 % of control.

With `CCOC(=O)Nc1cc(=O)c([N+](=O)[O-])c(N)[nH]1` the T/C (dose: 60.0 mg/kg/injection, schedule: Q01DX005 (ip), vehicle: saline + Tween-80 + alcohol) was 99 % of control, the T/C (dose: 120.0 mg/kg/injection, schedule: Q01DX005 (ip), vehicle: saline + Tween-80 + alcohol) was 101 % of control and the T/C (dose: 240.0 mg/kg/injection, schedule: Q01DX005 (ip), vehicle: saline + Tween-80 + alcohol) was 100 % of control.
